Results: patent publication US20250035616A1, “Organoid Compositions” (SHIMADZU CORPORATION, priority 2023, published 2025)

Legend:
[1] = tested on: HYDROX-cultured human liver organoid composition
Protocol: In this Example, the human liver organoid produced in Reference Example 1 was cultured with HYDROX (FIG. 1A) to produce a human liver organoid composition including the HYDROX, and its liver function was identified. The Matrigel-cultured human liver organoid produced in Reference Example 1 was treated with TrypLE Select so that the Matrigel was degraded. The resultant cell cluster was suspended in the medium for a human liver organoid, and was seeded on a HYDROX plate at 300 μL/well, followed by three-dimensional culture (HYDROX culture). The cell cluster was reseeded on a new HYDROX plate every 7 days. The HYDROX plate was produced as described below. In a 48-well adhesive plate, a HYDROX raw material polymer (Psar-PLLA) was mixed with 95% ethanol (Nacalai tesque) at a concentration of 10 mg/mL, and the mixture was warmed at 70° C. for 10 minutes. The dissolved polymer solution was dropped into a culture plate, and was dried for 8 hours or more to produce the human liver organoid composition including the HYDROX. In this Example and the following Examples, the human liver organoid composition including the HYDROX is referred to as “HYDROX-cultured human liver organoid composition.”
(§1) Further, at the initial stage of the development of a new drug, the safety of the drug needs to be accurately evaluated by a hepatotoxicity evaluation test. Accordingly, an investigation was made on the potential of the HYDROX-cultured human liver organoid composition to be applied to the hepatotoxicity evaluation test.

primary human liver cell = tested on: primary human liver cell
Protocol: In this Reference Example, 1 lot (lot name: HC4-24, XenoTech) of cultured primary human liver cells were cultured. The cells were rapidly thawed in a shaking water bath at 37° C., and were suspended in OptiTHAW Hepatocyte Isolation Kit (XenoTech) that had been preheated, followed by centrifugation at 100 g and room temperature for 5 minutes. The liver cells were suspended in HCM (Lonza) so that their density became 2.5×10^5 cells/cm^2, followed by seeding on 48-well Corning^RBioCoat™ Collagen I-coated Microplates (Corning). After the cells had been cultured for 48 hours, various tests were performed.
as §1

Compound	cell viability [1]	cell viability (primary human liver cell)
Cc1c(C)c2c(c(C)c1O)CCC(C)(COc1ccc(CC3SC(=O)NC3=O)cc1)O2 (centres unmarked) [Troglitazone]	the viability reduced in accordance with the concentration of each of the drugs	the viability reduced in accordance with the concentration of each of the drugs
CC(=O)Nc1ccc(O)cc1 [acetaminophen]	the viability reduced in accordance with the concentration of each of the drugs	
CCCCc1oc2ccccc2c1C(=O)c1cc(I)c(OCCN(CC)CC)c(I)c1 [amiodarone]	the viability reduced in accordance with the concentration of each of the drugs	the viability reduced in accordance with the concentration of each of the drugs
